We go through 5 molecules from ChEMBL document CHEMBL4417633, “Inhibitory polypeptides specific to WNT inhibitors” (2017).

pIC50: −log10 of the molar value. Where a SMILES comes first, the peptide text is derived from it.

The target in test [1] is T1, Dickkopf-related protein 1 (Homo sapiens, UniProt O94907).
T1 sequence (O94907 whole entry): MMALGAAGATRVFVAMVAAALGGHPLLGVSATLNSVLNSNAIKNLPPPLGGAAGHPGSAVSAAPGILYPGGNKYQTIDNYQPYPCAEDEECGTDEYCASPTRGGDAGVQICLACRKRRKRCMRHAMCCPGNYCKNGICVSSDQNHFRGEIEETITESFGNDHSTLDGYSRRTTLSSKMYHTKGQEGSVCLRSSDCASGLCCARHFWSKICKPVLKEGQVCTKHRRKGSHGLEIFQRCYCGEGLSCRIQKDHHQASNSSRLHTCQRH
Nature of the test: Inhibition of biotin-labeled human recombinant DKK1 assessed as reduction in DKK1 interaction with LRP-6/Fc incubated overnight by chemiluminescence based Alpha-screen assay. (In Alpha technology, singlet oxygen from a donor bead excites a nearby acceptor bead.)

The target in test [2] is T2, Dickkopf WNT-signaling pathway inhibitor 1 (Rattus norvegicus, UniProt A6I0Z0).
T2 sequence (A6I0Z0 whole entry): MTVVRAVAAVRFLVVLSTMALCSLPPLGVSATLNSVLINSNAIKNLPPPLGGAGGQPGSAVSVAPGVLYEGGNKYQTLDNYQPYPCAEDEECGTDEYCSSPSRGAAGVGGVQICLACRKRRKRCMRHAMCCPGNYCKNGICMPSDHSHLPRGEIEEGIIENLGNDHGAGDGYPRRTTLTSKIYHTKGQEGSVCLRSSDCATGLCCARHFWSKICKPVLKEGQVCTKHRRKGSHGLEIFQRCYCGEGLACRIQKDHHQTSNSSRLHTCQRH
Description: Inhibition of biotin-labeled rat recombinant DKK1 assessed as reduction in DKK1 interaction with LRP-6/Fc incubated overnight by chemiluminescence based Alpha-screen assay.

For `CSCC[C@H](NC(=O)[C@@H]1CCCN1C(=O)[C@H](Cc1ccc(O)cc1)NC(=O)[C@H](CS)NC(=O)[C@H](Cc1cnc[nH]1)NC(=O)[C@H](CC(N)=O)NC(=O)[C@H](CCCNC(=N)N)NC(=O)[C@H](Cc1cnc[nH]1)NC(=O)[C@H](CCCNC(=N)N)NC(=O)[C@H](CS)NC(=O)[C@H](CCCCN)NC(=O)[C@H](Cc1ccccc1)NC(=O)[C@H](Cc1ccc(O)cc1)NC(=O)[C@H](CO)NC(=O)[C@@H](NC(=O)[C@@H]1CCCN1C(=O)[C@@H](N)CS)C(C)C)C(=O)N[C@@H](CCC(=O)O)C(=O)N[C@@H](Cc1c[nH]c2ccccc12)C(=O)N[C@@H](CCCNC(=N)N)C(=O)N[C@@H](CS)C(=O)N[C@@H](CC(=O)O)C(=O)NCC(=O)N[C@@H](Cc1ccccc1)C(=O)N1CCC[C@H]1C(=O)N[C@@H](CC(=O)O)C(=O)N[C@@H](CS)C(=O)N[C@@H](CC(=O)O)C(=O)N[C@@H](CC(=O)O)C(=O)NCC(=O)N[C@@H](CO)C(=O)N[C@@H](CC(=O)O)C(=O)N[C@@H](CCC(=O)O)C(=O)N[C@@H](CCCNC(=N)N)C(=O)NCC(=O)N[C@@H](CS)C(=O)N1CCC[C@H]1C(=O)N[C@@H](Cc1ccc(O)cc1)C(=O)N[C@@H](CCCNC(=N)N)C(=O)N[C@H](C(=O)O)[C@@H](C)O` (H-CPVSYFKCRHRNHCYPMEWRCDGFPDCDDGSDERGCPYRT-OH), the pIC50 in test [1] and in test [2] was not below 9.00 throughout.
As to `CSCC[C@H](NC(=O)[C@@H]1CCCN1C(=O)[C@H](Cc1ccc(O)cc1)NC(=O)[C@H](CS)NC(=O)[C@H](Cc1cnc[nH]1)NC(=O)[C@H](CC(N)=O)NC(=O)[C@H](CCCNC(=N)N)NC(=O)[C@H](CC(N)=O)NC(=O)[C@H](CCCNC(=N)N)NC(=O)[C@H](CS)NC(=O)[C@H](CCCNC(=N)N)NC(=O)[C@H](Cc1ccccc1)NC(=O)[C@H](Cc1ccc(O)cc1)NC(=O)[C@H](CO)NC(=O)[C@H](C)NC(=O)[C@@H]1CCCN1C(=O)[C@@H](N)CS)C(=O)N[C@@H](CCC(=O)O)C(=O)N[C@@H](Cc1c[nH]c2ccccc12)C(=O)N[C@@H](CCCNC(=N)N)C(=O)N[C@@H](CS)C(=O)N[C@@H](CC(=O)O)C(=O)NCC(=O)N[C@@H](Cc1ccccc1)C(=O)N1CCC[C@H]1C(=O)N[C@@H](CC(=O)O)C(=O)N[C@@H](CS)C(=O)N[C@@H](CCC(=O)O)C(=O)N[C@@H](CC(=O)O)C(=O)N[C@@H](C)C(=O)N[C@@H](CO)C(=O)N[C@@H](CC(=O)O)C(=O)N[C@@H](CCC(=O)O)C(=O)N[C@@H](CCCCN)C(=O)NCC(=O)N[C@@H](CS)C(=O)N1CCC[C@H]1C(=O)N[C@@H](Cc1ccc(O)cc1)C(=O)N[C@@H](CCCNC(=N)N)C(=O)N[C@H](C(=O)O)[C@@H](C)O` (H-CPASYFRCRNRNHCYPMEWRCDGFPDCEDASDEKGCPYRT-OH), the pIC50 in test [1] and in test [2] was not below 9.00 in each case.
With `CSCC[C@H](NC(=O)[C@@H]1CCCN1C(=O)[C@H](Cc1ccc(O)cc1)NC(=O)[C@H](CS)NC(=O)[C@H](Cc1cnc[nH]1)NC(=O)[C@H](CC(N)=O)NC(=O)[C@H](CCCCN)NC(=O)[C@H](CC(N)=O)NC(=O)[C@H](CCCNC(=N)N)NC(=O)[C@H](CS)NC(=O)[C@H](CCCCN)NC(=O)[C@H](Cc1ccccc1)NC(=O)[C@H](Cc1ccc(O)cc1)NC(=O)[C@H](CO)NC(=O)[C@@H](NC(=O)[C@@H]1CCCN1C(=O)[C@@H](N)CS)C(C)C)C(=O)N[C@@H](CCC(=O)O)C(=O)N[C@@H](Cc1c[nH]c2ccccc12)C(=O)N[C@@H](CCCNC(=N)N)C(=O)N[C@@H](CS)C(=O)N[C@@H](CC(=O)O)C(=O)NCC(=O)N[C@@H](Cc1ccccc1)C(=O)N1CCC[C@H]1C(=O)N[C@@H](CC(=O)O)C(=O)N[C@@H](CS)C(=O)N[C@@H](CCC(=O)O)C(=O)N[C@@H](CC(=O)O)C(=O)NCC(=O)N[C@@H](CO)C(=O)N[C@@H](CC(=O)O)C(=O)N[C@@H](CCC(=O)O)C(=O)N[C@@H](CCCCN)C(=O)NCC(=O)N[C@@H](CS)C(=O)N1CCC[C@H]1C(=O)N[C@@H](Cc1ccc(O)cc1)C(=O)N[C@@H](CCCNC(=N)N)C(=O)N[C@H](C(=O)O)[C@@H](C)O` (H-CPVSYFKCRNKNHCYPMEWRCDGFPDCEDGSDEKGCPYRT-OH), the pIC50 in test [1] and in test [2] was not below 9.00 throughout.
Regarding `CC[C@H](C)[C@H](NC(=O)[C@H](CC(N)=O)NC(=O)CNC(=O)[C@H](CS)NC(=O)[C@H](CCC(N)=O)NC(=O)[C@H](Cc1ccccc1)NC(=O)[C@H](Cc1ccc(O)cc1)NC(=O)[C@H](CO)NC(=O)[C@@H]1CCCN1C(=O)[C@@H]1CCCN1C(=O)[C@@H](N)CS)C(=O)N[C@@H](CC(N)=O)C(=O)N[C@@H](Cc1cnc[nH]1)C(=O)N[C@@H](CS)C(=O)N[C@@H](Cc1ccc(O)cc1)C(=O)N1CCC[C@H]1C(=O)N[C@@H](CCSC)C(=O)N[C@@H](CCC(=O)O)C(=O)N[C@@H](Cc1c[nH]c2ccccc12)C(=O)N[C@@H](CCCNC(=N)N)C(=O)N[C@@H](CS)C(=O)N[C@@H](CC(=O)O)C(=O)NCC(=O)N[C@@H](Cc1ccccc1)C(=O)N[C@@H](Cc1cnc[nH]1)C(=O)N[C@@H](CC(=O)O)C(=O)N[C@@H](CS)C(=O)N[C@H](C(=O)N[C@@H](CC(=O)O)C(=O)NCC(=O)N[C@@H](CO)C(=O)N[C@@H](CC(=O)O)C(=O)N[C@@H](CCC(=O)O)C(=O)N[C@@H](CCC(N)=O)C(=O)NCC(=O)N[C@@H](CS)C(=O)N1CCC[C@H]1C(=O)N[C@@H](Cc1ccc(O)cc1)C(=O)N[C@@H](CCCNC(=N)N)C(=O)N[C@H](C(=O)O)[C@@H](C)O)C(C)C` (H-CPPSYFQCGNINHCYPMEWRCDGFHDCVDGSDEQGCPYRT-OH), the negative logarithm of the IC50 (pIC50) in test [1] and in test [2] was not below 9.00 each time.
As for `CSCC[C@H](NC(=O)[C@@H]1CCCN1C(=O)[C@H](Cc1ccc(O)cc1)NC(=O)[C@H](CS)NC(=O)[C@H](Cc1cnc[nH]1)NC(=O)[C@H](CCCCN)NC(=O)[C@H](Cc1ccccc1)NC(=O)[C@H](CC(N)=O)NC(=O)[C@H](Cc1c[nH]c2ccccc12)NC(=O)[C@H](CS)NC(=O)[C@H](CCC(N)=O)NC(=O)[C@H](Cc1ccccc1)NC(=O)[C@H](Cc1ccc(O)cc1)NC(=O)[C@H](CO)NC(=O)[C@H](C)NC(=O)[C@@H]1CCCN1C(=O)[C@@H](N)CS)C(=O)N[C@@H](CCC(=O)O)C(=O)N[C@@H](Cc1c[nH]c2ccccc12)C(=O)N[C@@H](CCCNC(=N)N)C(=O)N[C@@H](CS)C(=O)N[C@@H](CC(=O)O)C(=O)NCC(=O)N[C@@H](Cc1ccccc1)C(=O)N[C@@H](CC(N)=O)C(=O)N[C@@H](CC(=O)O)C(=O)N[C@@H](CS)C(=O)N[C@H](C(=O)N[C@@H](CC(=O)O)C(=O)NCC(=O)N[C@@H](CO)C(=O)N[C@@H](CC(=O)O)C(=O)N[C@@H](CCC(=O)O)C(=O)N[C@@H](CCCCN)C(=O)NCC(=O)N[C@@H](CS)C(=O)N1CCC[C@H]1C(=O)N[C@@H](Cc1ccc(O)cc1)C(=O)N[C@@H](CCCNC(=N)N)C(=O)N[C@H](C(=O)O)[C@@H](C)O)C(C)C` (H-CPASYFQCWNFKHCYPMEWRCDGFNDCVDGSDEKGCPYRT-OH), the negative logarithm of the IC50 (pIC50) in test [1] and in test [2] was not below 9.00 in each case.

As a reminder, the pIC50 is the IC50 on a negative log10 scale, so that one unit is a factor of ten.
